Results taken from ChEMBL document CHEMBL4184156, “Repurposing Hsp90 inhibitors as antibiotics targeting histidine kinases” (Bioorg Med Chem Lett, 2017).
Converted amounts (≈) assume the structure as drawn. The source made the active and inactive calls. The rule behind the calls is not given here.

Legend:
[1] = system: Caulobacter vibrioides; test: Antibacterial activity against Caulobacter crescentus NA1000 after 24 hrs by broth dilution method; type: functional; conditions: NA1000, 24 h
[2] = biological target: Cell cycle histidine kinase CckA (Caulobacter vibrioides, UniProt Q9X688); test: Inhibition of recombinant Caulobacter vibrioides cell cycle histidine kinase CckA deltaTM mutant DHp domain (70 to 691 residues) expressed in Escherichia coli in presence of varying levels of ATP measured every 60 secs for 2 hrs by PK/LDH enzyme coupled assay
[3] = biological target: T1, Cell cycle histidine kinase CckA (Caulobacter vibrioides) (UniProt Q9X688); test: Binding affinity to recombinant Caulobacter vibrioides cell cycle histidine kinase CckA delta 3 mutant DHp domain (190 to 562 residues) expressed in Escherichia coli assessed as change in metlting temperature at 30 uM after 2 mins by SYPRO orange dye based DSF assay
T1 sequence (whole entry): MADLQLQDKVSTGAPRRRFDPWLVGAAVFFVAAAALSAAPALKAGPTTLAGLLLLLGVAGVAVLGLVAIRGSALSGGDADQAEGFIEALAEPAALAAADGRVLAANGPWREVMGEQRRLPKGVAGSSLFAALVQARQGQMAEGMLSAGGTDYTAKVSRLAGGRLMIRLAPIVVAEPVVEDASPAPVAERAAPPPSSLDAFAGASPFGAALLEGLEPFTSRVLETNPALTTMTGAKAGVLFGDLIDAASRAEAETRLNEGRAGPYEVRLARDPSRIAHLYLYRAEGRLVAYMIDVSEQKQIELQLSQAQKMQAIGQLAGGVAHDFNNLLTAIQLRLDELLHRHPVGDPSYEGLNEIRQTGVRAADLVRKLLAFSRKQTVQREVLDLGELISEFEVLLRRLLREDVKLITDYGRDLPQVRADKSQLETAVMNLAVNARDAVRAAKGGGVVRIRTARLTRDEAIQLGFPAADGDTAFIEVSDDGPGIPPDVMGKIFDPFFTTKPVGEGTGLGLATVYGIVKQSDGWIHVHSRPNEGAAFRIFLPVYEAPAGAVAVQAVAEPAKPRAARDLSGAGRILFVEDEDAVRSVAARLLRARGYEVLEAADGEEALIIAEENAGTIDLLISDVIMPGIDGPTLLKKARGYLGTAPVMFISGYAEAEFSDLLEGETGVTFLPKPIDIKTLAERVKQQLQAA

[4] = system: Escherichia coli; test: Antibacterial activity against Escherichia coli DC2 after 24 hrs by broth dilution method; type: functional; conditions: DC2, 24 h
[5] = Inhibition of recombinant full length yeast N-terminal His-tagged Hsp90 expressed in Escherichia coli BL21 incubated overnight in presence of ATP by malachite green dye based assay; design: species or system Saccharomyces cerevisiae
[6] = biological target: T2, Histidine protein kinase DivJ (Caulobacter vibrioides (strain ATCC 19089 / CB15) (Caulobactercrescentus)) (UniProt Q03228); test: (§1) Inhibition of recombinant Caulobacter vibrioides N-terminal His6-tagged DHp-catalytic domain DivJ (188 to 585 residues) autophosphorylation expressed in Escherichia coli BL21(DE3) at 500 uM preincubated for 10 mins followed by [gamma-32P]-ATP addition after 15 mins by phosphotransferase dot blot assay relative to control; design: scale not given: the % may be the effect or the level left
T2 sequence (whole entry): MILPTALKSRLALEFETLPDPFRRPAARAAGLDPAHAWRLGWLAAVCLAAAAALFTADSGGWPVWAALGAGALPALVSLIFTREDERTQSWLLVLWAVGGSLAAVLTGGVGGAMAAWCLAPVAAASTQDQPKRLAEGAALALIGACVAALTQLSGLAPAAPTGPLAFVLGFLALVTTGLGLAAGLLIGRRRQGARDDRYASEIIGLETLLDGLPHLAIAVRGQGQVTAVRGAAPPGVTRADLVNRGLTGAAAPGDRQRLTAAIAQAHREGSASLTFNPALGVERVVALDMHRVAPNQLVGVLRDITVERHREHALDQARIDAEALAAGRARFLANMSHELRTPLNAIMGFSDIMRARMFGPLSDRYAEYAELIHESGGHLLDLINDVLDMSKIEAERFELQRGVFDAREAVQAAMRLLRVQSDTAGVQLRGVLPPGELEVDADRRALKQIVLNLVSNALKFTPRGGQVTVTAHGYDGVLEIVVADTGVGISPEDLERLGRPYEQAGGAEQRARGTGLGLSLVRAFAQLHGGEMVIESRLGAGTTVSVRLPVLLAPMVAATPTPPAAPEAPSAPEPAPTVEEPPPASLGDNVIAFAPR

[7] = Hemolytic activity against sheep RBC at 0.5 mM after 30 mins relative to control; type: ADME, cell-based, Ovis aries, Erythrocyte; conditions: sheep red blood cells (erythrocytes), read-out: Activity
[8] = system: Bacillus subtilis; test: Antibacterial activity against Bacillus subtilis YB886 after 24 hrs by broth dilution method; type: functional; conditions: YB886, 24 h
[9] = biological target: T3, Virulence sensor histidine kinase PhoQ (Salmonella typhimurium (strain LT2 / SGSC1412 / ATCC 700720)) (UniProt P0DM80); test: as §1, with “Salmonella typhimurium” for “Caulobacter vibrioides”, “His6-SUMO-tagged” for “His6-tagged”, “PhoQ (257” for “DivJ (188”, “487” for “585”, “30” for “15”; design: scale not given: the % may be the effect or the level left; conditions: Salmonella enterica subsp. enterica serovar Typhimurium
T3 sequence (whole entry): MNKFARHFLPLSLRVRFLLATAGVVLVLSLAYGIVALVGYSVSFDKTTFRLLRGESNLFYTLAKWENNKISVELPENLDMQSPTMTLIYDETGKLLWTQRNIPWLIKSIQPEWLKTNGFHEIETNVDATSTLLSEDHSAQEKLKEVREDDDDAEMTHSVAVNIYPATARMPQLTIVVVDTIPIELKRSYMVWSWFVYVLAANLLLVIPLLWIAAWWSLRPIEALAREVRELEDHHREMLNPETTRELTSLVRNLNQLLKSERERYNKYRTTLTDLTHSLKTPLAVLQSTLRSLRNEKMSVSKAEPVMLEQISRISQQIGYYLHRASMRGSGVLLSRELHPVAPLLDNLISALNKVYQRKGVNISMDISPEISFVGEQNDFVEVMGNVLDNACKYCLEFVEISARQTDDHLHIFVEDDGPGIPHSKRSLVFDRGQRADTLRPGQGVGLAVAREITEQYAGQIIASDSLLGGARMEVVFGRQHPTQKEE

[10] = biological target: T3, Virulence sensor histidine kinase PhoQ (Salmonella typhimurium (strain LT2 / SGSC1412 / ATCC 700720)); test: Inhibition of recombinant Salmonella typhimurium N-terminal His6-SUMO-tagged PhoQ (257 to 487 residues) expressed in Escherichia coli BL21 (DE3) assessed as enzyme aggregation at 800 uM after 30 mins by native-PAGE analysis; conditions: Salmonella enterica subsp. enterica serovar Typhimurium
[11] = biological target: T3, Virulence sensor histidine kinase PhoQ (Salmonella typhimurium (strain LT2 / SGSC1412 / ATCC 700720)); test: Inhibition of recombinant Salmonella typhimurium N-terminal His6-SUMO-tagged PhoQ (257 to 487 residues) expressed in Escherichia coli BL21 (DE3) assessed as enzyme aggregation at 400 uM after 30 mins by native-PAGE analysis; conditions: Salmonella enterica subsp. enterica serovar Typhimurium
[12] = biological target: T2, Histidine protein kinase DivJ (Caulobacter vibrioides (strain ATCC 19089 / CB15) (Caulobactercrescentus)); test: Inhibition of recombinant Caulobacter vibrioides N-terminal His6-tagged DHp-catalytic domain DivJ (188 to 585 residues) expressed in Escherichia coli BL21 (DE3) at 800 uM preincubated for 10 mins followed by [gamma-32P]-ATP addition after 15 mins by phosphotransferase dot blot assay
[13] = biological target: T2, Histidine protein kinase DivJ (Caulobacter vibrioides (strain ATCC 19089 / CB15) (Caulobactercrescentus)); test: Inhibition of recombinant Caulobacter vibrioides N-terminal His6-tagged DHp-catalytic domain DivJ (188 to 585 residues) expressed in Escherichia coli BL21 (DE3) at 400 uM preincubated for 10 mins followed by [gamma-32P]-ATP addition after 15 mins by phosphotransferase dot blot assay
[14] = compound: COc1ccc(-c2c(C)n[nH]c2-c2cc(Cl)c(O)cc2O)cc1; test: Competitive inhibition of Caulobacter vibrioides full length wild type Cell cycle histidine kinase CckA deltaTM expressed in Escherichia coli BL21-AI assessed as enzyme Km in presence of varying levels of ATP measured every 60 secs for 2 hrs by Lineweaver-Burk plot analysis

Row | Molecule | MIC [1] | IC50 [2] | ΔTm [3] | MIC [4] | IC50 [5] | Activity [6] | hemolysis at 0.5 h, 500 µM [7] | MIC [8] | Activity [9] | inhibition [10] | inhibition [11] | inhibition [12] | inhibition [13] | Km [14]
1 | C[C@@H]1C[C@H]2O[C@@H]2/C=C\C=C\C(=O)Cc2c(Cl)c(O)cc(O)c2C(=O)O1 [RADICICOL] | > 300 µM | 184 µM | 0.9 °C | > 300 µM | 0.26 µM | 123% | 0% | > 300 µM | 86% | – | – | – | – | –
2 | CCc1cc(-c2[nH]nc(C)c2-c2ccc3c(c2)OCCO3)c(O)cc1O | 150 to 225 µM (≈ 52.9 to 79.3 µg/mL) | – | 4 °C | 37.5 to 75 µM (≈ 13.2 to 26.4 µg/mL) | – | 70% | – | 112 µM (≈ 39.6 µg/mL) | 9% | inactive | inactive | Active | inactive | –
3 | Cell cycle histidine kinase CckA (Caulobacter vibrioides), Q9X688 (protein) MADLQLQDKVSTGAPRRRFDPWLVGAAVFFVAAAALSAAPALKAGPTTLAGLLLLLGVAGVAVLGLVAIRGSALSGGDADQAEGFIEALAEPAALAAADGRVLAANGPWREVMGEQRRLPKGVAGSSLFAALVQARQGQMAEGMLSAGGTDYTAKVSRLAGGRLMIRLAPIVVAEPVVEDASPAPVAERAAPPPSSLDAFAGASPFGAALLEGLEPFTSRVLETNPALTTMTGAKAGVLFGDLIDAASRAEAETRLNEGRAGPYEVRLARDPSRIAHLYLYRAEGRLVAYMIDVSEQKQIELQLSQAQKMQAIGQLAGGVAHDFNNLLTAIQLRLDELLHRHPVGDPSYEGLNEIRQTGVRAADLVRKLLAFSRKQTVQREVLDLGELISEFEVLLRRLLREDVKLITDYGRDLPQVRADKSQLETAVMNLAVNARDAVRAAKGGGVVRIRTARLTRDEAIQLGFPAADGDTAFIEVSDDGPGIPPDVMGKIFDPFFTTKPVGEGTGLGLATVYGIVKQSDGWIHVHSRPNEGAAFRIFLPVYEAPAGAVAVQAVAEPAKPRAARDLSGAGRILFVEDEDAVRSVAARLLRARGYEVLEAADGEEALIIAEENAGTIDLLISDVIMPGIDGPTLLKKARGYLGTAPVMFISGYAEAEFSDLLEGETGVTFLPKPIDIKTLAERVKQQLQAA | – | – | – | – | – | – | – | – | – | – | – | – | – | 17.9 µM
